The values below come from patent US9212130B2, “Heterocyclic derivative and pharmaceutical composition comprising the same” (SHIONOGI & CO., LTD., priority 2010, dated 2015).

Sequence of human P2X3 receptor (P56373 whole entry): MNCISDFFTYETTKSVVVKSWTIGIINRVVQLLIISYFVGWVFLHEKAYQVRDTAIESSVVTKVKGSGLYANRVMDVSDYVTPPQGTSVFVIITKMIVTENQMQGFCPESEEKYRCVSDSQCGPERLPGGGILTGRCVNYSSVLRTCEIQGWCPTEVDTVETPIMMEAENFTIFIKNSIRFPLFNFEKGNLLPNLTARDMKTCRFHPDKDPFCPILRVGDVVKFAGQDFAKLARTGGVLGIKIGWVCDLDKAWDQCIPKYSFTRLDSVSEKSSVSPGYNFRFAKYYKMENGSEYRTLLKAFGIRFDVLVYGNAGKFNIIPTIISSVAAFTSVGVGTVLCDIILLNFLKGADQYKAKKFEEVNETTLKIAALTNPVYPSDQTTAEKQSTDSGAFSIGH

The target of one series is human P2X3 receptor (Homo sapiens (Human), UniProt P56373). Nature of the series: Evaluation of human P2X3 receptor inhibitory activity (ATP-induced Fluo-3 fluorescence, FDSS 3000). The class given is cell-based. The conditions noted are these: C6BU-1 cell transfected with human P2X3 receptor gene. Here is the method:
The plate was placed in High-Throughput Screening System FDSS 3000 (Hamamatsu Photonics K.K.). […] Five minutes after, 50 nM ATP solution (50 μL) prepared by dilution with the dilution buffer was dispensed through the built-in automatic dispenser, and the measurement of fluorescence intensity was continued for 3 min. For each well, the specific maximum fluorescence intensity was calculated as the ratio of the maximum fluorescence intensity after addition of the ATP solution to the fluorescence intensity at the starting of the measurement. […] FDSS software (Hamamatsu Photonics K.K.) was used for calculation of the specific maximum fluorescence intensity. IC50 was calculated using Microsoft Excel (Microsoft. Corporation) and XLfit (idbs Ltd.)
The aforementioned in mM, μM and nM are each means mmol/L, μmol/L and nmol/L, respectively.
In tables, μM means μmol/L.
Turning to `CC(=O)N1CCC(C(=O)Nc2cnc(Nc3ccc4nc(C)sc4c3)n(Cc3ccc(Cl)cc3)c2=O)CC1` [I-356], the IC50 turned out to be 0.018 µM. The same measure, in the same setting: the figure for `CC(C)Oc1ccc(Nc2cc(=O)n(CC(=O)NCCO)c(=O)n2Cc2ccc(Cl)cc2)cc1F` [I-112, 1-(4-chlorobenzyl)-6-(3-fluoro-4-isopropoxyphenylamino)-3-(2-hydroxyethylcarbamoylmethyl)pyrimidine-2,4(1H,3H)-dion] is 0.014 µM. On the same count and under the same terms, the result for `CC(=O)Nc1cnc(Nc2ccc(Oc3ccc(C)nc3)cc2)n(Cc2ccc(Cl)cc2)c1=O` [I-291] reads 0.043 µM.

`CC(C)Oc1ccc(Nc2ncc(NC(N)=O)c(=O)n2Cc2ccc(Cl)cc2)cc1F` [I-277] gave an IC50 of 0.049 µM. The same measure, in the same setting: the figure for `Cc1nc2ccc(Nc3ncc(Br)c(=O)n3Cc3ccc(Cl)cc3)cc2s1` [I-306] is 0.207 µM. Molecule `CCc1cnc(Nc2ccc(OC(C)C)c(F)c2)c(Oc2ccc(C)cc2)n1` [I-072, 5-ethyl-2-(3-fluoro-4-isopropoxyphenylamino)-3-(4-methylphenoxy)pyrazine] came in with an IC50 of 0.749 µM. Same read-out and setting: the figure for `CCc1nc2ccc(Nc3ncc(NC(=O)C4CCOCC4)c(=O)n3Cc3ccc(Cl)cc3)cc2s1` [I-262] is 0.003 µM; for `COCCC(=O)Nc1cnc(Nc2ccc(OC(C)C)c(F)c2)n(Cc2ccc(Cl)cc2)c1=O` [I-248] it is 0.024 µM; for `CC(C)Oc1ccc(Nc2cc(=O)n(CC(CO)CO)c(=O)n2Cc2ccc(Cl)cc2)cc1Cl` [I-099] it is 0.006 µM. On the same count and under the same terms, the result for `CC(C)Oc1ccc(Nc2ncc(N)c(=O)n2Cc2ccc(Cl)cc2)cc1F` [I-243] reads 0.676 µM; that for `Cc1nc2ccc(Nc3cc(=O)n(CCO)c(=O)n3Cc3ccc(Cl)cc3)cc2s1` [I-355], 0.057 µM. `COC(=O)Cn1c(=O)cc(Nc2ccc(OC(C)C)c(F)c2)n(Cc2ccc(Cl)cc2)c1=O` [I-104, 1-(4-chlorobenzyl)-6-(3-fluoro-4-isopropoxyphenylamino)-3-(methoxycarbonylmethyl)pyrimidine-2,4(1H,3H)-dion]: the IC50 is 0.096 µM. The same measure, in the same setting: the result for `CC(C)Oc1ccc(Nc2ncc(NC(=O)C(C)(C)O)c(=O)n2Cc2ccc(Cl)cc2)cc1F` [I-268] reads 0.004 µM. The same measure, in the same setting: the result for `CC(C)Oc1ccc(Nc2cc(=O)n(Cc3ccc(Cl)cc3)c(=O)n2Cc2ccc(Cl)cc2)cc1Cl` [I-005] reads 0.238 µM. Same read-out and setting: the figure for `CCn1c(=O)cc(Nc2ccc(Oc3cncc(C(=O)OC)c3)cc2)n(Cc2ccc(Cl)cc2)c1=O` [I-314] is 0.035 µM.

`CC(C)Oc1ccc(Nc2ncc(C(N)=O)c(=O)n2Cc2ccc(Cl)cc2)cc1F` [I-258] registered a half-maximal inhibitory concentration (IC50) of 0.047 µM. Still for that read-out and setting: the result for `CC(C)Oc1ccc(Nc2ncc(NC(=O)N3CCOCC3)c(=O)n2Cc2ccc(Cl)cc2)cc1F` [I-278] reads 0.016 µM.

Regarding `CC(C)Oc1ccc(Nc2ncc(NC(=O)CCO)c(=O)n2Cc2ccc(Cl)cc2)cc1F` [I-269], half-maximal inhibition (IC50) was put at 0.031 µM. The same measure, in the same setting: the figure for `CC(C)Oc1ccc(Nc2nc(=O)c(NC(=O)C3CCOCC3)cn2Cc2ccc(Cl)cc2)cc1F` [I-238] is 0.653 µM. In the case of `CC(C)Oc1ccc(Nc2nc(=O)c(NC=O)cn2Cc2ccc(Cl)cc2)cc1F` [I-239], the IC50 came out at 0.515 µM. `CC(C)Oc1ccc(Nc2ncc(CCC(=O)O)c(=O)n2Cc2ccc(Cl)cc2)cc1F` [I-232] yielded an IC50 of 0.681 µM. The molecule `CCc1c(C)nc(Nc2ccc3nc(C)sc3c2)n(Cc2ccc(Cl)cc2)c1=O` [I-351] registered an IC50 of 0.146 µM.

For `COC(=O)[C@@H](C)NC(=O)c1cnc(Nc2ccc(OC(C)C)c(F)c2)n(Cc2ccc(Cl)cc2)c1=O` [I-197], the IC50 came to 0.098 µM. Still for that read-out and setting: the result for `CC(C)Oc1ccc(Nc2nc(=O)c(C(=O)NC(CO)CO)cn2Cc2ccc(Cl)cc2)cc1F` [I-150] reads 0.12 µM; that for `CC(=O)N1CCC(NC(=O)c2cn(Cc3ccc(Cl)cc3)c(Nc3ccc4nc(C)sc4c3)nc2=O)CC1` [I-302], 0.087 µM. Still for that read-out and setting: the result for `Cc1nc2ccc(Nc3nc(=O)c(C(=O)NCCCO)cn3Cc3ccc(Cl)cc3)cc2s1` [I-299] reads 0.111 µM; that for `O=C(Nc1cnc(Nc2ccc(Oc3cncc(F)c3)cc2)n(Cc2ccc(Cl)cc2)c1=O)C1CCOCC1` [I-245], 0.0008 µM. On the same count and under the same terms, the result for `CC(C)Oc1ccc(Nc2ncc(C(=O)NC3CCOCC3)c(=O)n2Cc2ccc(Cl)cc2)cc1F` [I-242] reads 0.067 µM.

`CCOC(=O)CCC1CN(Cc2ccc(Cl)cc2)C(Nc2ccc(OC(C)C)c(Cl)c2)=NC1=O` (stereo not drawn) [I-116] came in with an IC50 of 0.315 µM.

With `COC(=O)C(C)(C)Cn1c(=O)cc(Nc2ccc(OC(C)C)c(F)c2)n(Cc2ccc(Cl)cc2)c1=O` [I-020], the half-inhibitory concentration (IC50) was 0.028 µM. Same read-out and setting: the result for `Cc1ccc(Oc2ccc(Nc3ncc(NC(=O)C(C)(C)O)c(=O)n3Cc3ccc(Cl)cc3)cc2)cn1` [I-295] reads 0.002 µM; that for `CC(C)Oc1ccc(Nc2ncc(NC(=O)OC(C)(C)C)c(=O)n2Cc2ccc(Cl)cc2)cc1F` [I-158], 0.02 µM; that for `CC(C)Oc1ccc(Nc2ncc(NS(C)(=O)=O)c(=O)n2Cc2ccc(Cl)cc2)cc1F` [I-252], 0.062 µM. The same measure, in the same setting: the figure for `CCCC(=O)Nc1cnc(Nc2ccc(OC(C)C)c(F)c2)n(Cc2ccc(Cl)cc2)c1=O` [I-260] is 0.015 µM; for `CCOC(=O)c1cn(Cc2ccc(Cl)cc2)c(Nc2ccc3nc(C)sc3c2)nc1=O` [I-282] it is 0.272 µM.

Molecule `Cc1nc2ccc(Nc3ncc(NC(=O)C(C)(C)O)c(=O)n3Cc3ccc(Cl)cc3)cc2s1` [I-360] gave a half-maximal inhibitory concentration (IC50) of 0.003 µM. Same read-out and setting: the figure for `CCOC(=O)c1cn(Cc2ccc(Cl)cc2)c2cc(Nc3ccccc3)ccc2c1=O` [I-148, 1-(4-chlorobenzyl)-7-(phenylamino)-3-(ethoxycarbonyl)quinoline-4(1H)-one] is 0.324 µM; for `CC(C)Oc1ccc(Nc2ncc(NCC3CCOCC3)c(=O)n2Cc2ccc(Cl)cc2)cc1F` [I-224] it is 0.511 µM. Still for that read-out and setting: the result for `CC(C)Oc1ccc(Nc2ncc(NCCCO)c(=O)n2Cc2ccc(Cl)cc2)cc1F` [I-223] reads 0.724 µM. Same read-out and setting: the figure for `COCC(=O)Nc1cnc(Nc2ccc(OC(C)C)c(F)c2)n(Cc2ccc(Cl)cc2)c1=O` [I-249] is 0.035 µM. The molecule `CC(C)Oc1ccc(Nc2ncc(N(S(C)(=O)=O)S(C)(=O)=O)c(=O)n2Cc2ccc(Cl)cc2)cc1F` [I-253] gave an IC50 of 0.536 µM. The molecule `CCOC(=O)/C=C/c1cnc(Nc2ccc(OC(C)C)c(Cl)c2)n(Cc2ccc(Cl)cc2)c1=O` [I-132, 2-(3-chloro-4-isopropoxyphenylamino)-3-(4-chlorobenzyl)-5-(2-ethoxycarbonylethenyl) pyrimidine-4(3H)-one] came in with an IC50 of 0.206 µM. `Cc1nc(Nc2ccc(OC(C)C)cc2)n(Cc2ccc(Cl)cc2)c(=O)c1Cc1ccccc1` [I-330] showed an IC50 of 0.35 µM. On the same count and under the same terms, the result for `CC(C)Oc1ccc(Nc2nc(=O)c(Cc3ccccc3)cn2Cc2ccc(Cl)cc2)cc1Cl` [I-023, 5-benzyl-1-(4-chlorobenzyl)-2-(3-chloro-4-isopropoxyphenylamino)pyrimidine-4(1H)-one] reads 0.148 µM. `CC(C)Oc1ccc(Nc2nc(=O)c(NC(=O)OC(C)(C)C)cn2Cc2ccc(Cl)cc2)cc1F` [I-230]: the IC50 amounted to 0.092 µM. The same measure, in the same setting: the result for `CC(C)Oc1ccc(NC2=CC(O)N(CC(=O)NC(CO)CO)C(=O)N2Cc2ccc(Cl)cc2)cc1F` (stereo not drawn) [I-111] reads 0.011 µM; that for `CCOC(=O)c1cn(Cc2ccccc2)c(Nc2ccc(OC(C)C)c(Cl)c2)cc1=O` [I-049], 0.796 µM; that for `CC(C)Oc1ccc(Nc2nc(=O)c(C(=O)NCCO)cn2Cc2ccc(Cl)cc2)cc1F` [I-146, 1-(4-chlorobenzyl)-2-(3-fluoro-4-isopropoxyphenylamino)-5-[N-(2-hydroxyethyl)carbamoyl]pyrimidine-4(1H)-one], 0.383 µM. On the same count and under the same terms, the figure for `CC(C)(Cn1c(=O)cc(Nc2cccc(C(F)(F)F)n2)n(Cc2ccc(Cl)cc2)c1=O)C(=O)O` [I-114, 1-(4-chlorobenzyl)-3-(2-hydroxycarbonyl-2-methylpropyl)-6-(6-trifluoromethyl-2-pyridylamino)pyrimidine-2,4(1H,3H)-dion] is 0.16 µM; for `Cc1nc2ccc(Nc3ncc(NC(=O)C4CCOCC4)c(=O)n3Cc3ccc(Cl)cc3)cc2s1` [I-264] it is 0.004 µM. Still for that read-out and setting: the result for `Cc1ccc(Oc2ccc(Nc3ncc(N)c(=O)n3Cc3ccc(Cl)cc3)cc2)cn1` [I-292] reads 0.433 µM. In turn, `Cc1nc2ccc(Nc3nc(=O)c(C(=O)NC4COC4)cn3Cc3ccc(Cl)cc3)cc2s1` [I-308] showed an IC50 of 0.133 µM. Same read-out and setting: the result for `CC(=O)Nc1cnc(Nc2ccc(OC(C)C)c(F)c2)n(Cc2ccc(Cl)cc2)c1=O` [I-246] reads 0.106 µM.

Test system in another series: not listed separately
The series is described as follows: Solubility test. The class given is physicochemical. The conditions noted are these: 25 °C, other biorelevant, kinetic from dmso stock; 1% DMSO; artificial intestinal juice in pH 8.8; 25 degrees Celsius for 16 hours. How it is done: The solubility of a compound was determined under a condition in which 1% DMSO was added. 10 mmol/L compound solution was prepared using DMSO, and then 6 μL of the compound solution was added to 594 μL of artificial intestinal juice in […] (to 250 mL of 0.2 mol/L potassium dihydrogen phosphate reagent solution was added 118 mL of 0.2 mol/L NaOH reagent solution and water to provide a final volume of 1000 mL). After standing at 25 degrees Celsius for 16 hours, the mixed solution was filtrated with suction. The filtrate was diluted twice with methanol/water (1/1) and then a concentration in the filtration was measured with HPLC or LC/MS/MS by the absolute calibration method.
Regarding `CC(C)Oc1ccc(Nc2cc(=O)n(CC(=O)NCCO)c(=O)n2Cc2ccc(Cl)cc2)cc1F` [I-112, 1-(4-chlorobenzyl)-6-(3-fluoro-4-isopropoxyphenylamino)-3-(2-hydroxyethylcarbamoylmethyl)pyrimidine-2,4(1H,3H)-dion], the solubility at 16 h is over 50 µM.

The same series, now with this note: artificial intestinal juice (phosphate buffer) with 1% DMSO, 25 °C, other biorelevant, kinetic from dmso stock, artificial intestinal juice in pH 8.8, 25 degrees Celsius for 16 hours.
In turn, `CC(C)Oc1ccc(Nc2nc(=O)c(CCC(=O)O)cn2Cc2ccc(Cl)cc2)cc1Cl` [I-117] came in with a solubility at 16 h of over 50 µM. On the same count and under the same terms, the figure for `CC(=O)N1CCC(C(=O)Nc2cnc(Nc3ccc4nc(C)sc4c3)n(Cc3ccc(Cl)cc3)c2=O)CC1` [I-356] is over 50 µM. On the same count and under the same terms, the figure for `Cc1nc2ccc(Nc3nc(=O)c(C(=O)NCCCO)cn3Cc3ccc(Cl)cc3)cc2s1` [I-299] is over 50 µM.

Usually IC50 stands for the concentration that inhibits the measured activity by half. In general, solubility refers to the dissolved amount per volume that the medium holds.
